Read-outs that look alike come from different tables or passages of the source. Bounds are passed on as bounds.

The subject of assay [1] is TNF-α secretion in Raw 264.7 cells. Briefly: Cell-based assay for inhibition of TNF-α secretion in Raw cells. To be noted: Mus musculus, RAW264.7, LPS 100 ng/ml, 4 hr. Put shortly:
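Confluent Raw 264.7 cells were seeded overnight, refed, and pre-incubated 1 hr with compound (0.2% final DMSO), then stimulated with LPS at 100 ng/ml final for 4 hr at 37° C. Supernatant TNF-α measured by ELISA; % inhibition and IC50 by curve fitting.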

Assay [2] has as its target T1, recombinant human catalytic domain of MMP-14 (Homo sapiens, UniProt P50281).
T1 construct: 20 kDa; purchased Chemicon International, Inc. CC1041
Briefly: In-vitro fluorescence assay of MMP-14 activity. The assay is classed as biochemical. The procedure:
The results were analyzed as described for MMP-13 activity, above.

In assay [3] the test system is LPS-induced TNF-α secretion in human whole blood. Briefly: Human whole blood assay for LPS-induced TNF-α secretion. The assay is classed as cell-based. The following applies: LPS 100 ng/ml, read-out: TNF Secretion HWB IC50. The procedure, abridged:
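Fresh blood from healthy volunteers pre-incubated 1 h at 37° C with compound (final DMSO <0.2%), then stimulated with 100 ng/ml LPS for 4 h or overnight at 37° C with rotation. Supernatant TNF-α measured by ELISA; percent inhibition and IC50 derived by curve fitting.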

For another assay, the target named is T2, recombinant human MMP-2 (Homo sapiens, UniProt P08253).
T2 sequence (P08253 110-660): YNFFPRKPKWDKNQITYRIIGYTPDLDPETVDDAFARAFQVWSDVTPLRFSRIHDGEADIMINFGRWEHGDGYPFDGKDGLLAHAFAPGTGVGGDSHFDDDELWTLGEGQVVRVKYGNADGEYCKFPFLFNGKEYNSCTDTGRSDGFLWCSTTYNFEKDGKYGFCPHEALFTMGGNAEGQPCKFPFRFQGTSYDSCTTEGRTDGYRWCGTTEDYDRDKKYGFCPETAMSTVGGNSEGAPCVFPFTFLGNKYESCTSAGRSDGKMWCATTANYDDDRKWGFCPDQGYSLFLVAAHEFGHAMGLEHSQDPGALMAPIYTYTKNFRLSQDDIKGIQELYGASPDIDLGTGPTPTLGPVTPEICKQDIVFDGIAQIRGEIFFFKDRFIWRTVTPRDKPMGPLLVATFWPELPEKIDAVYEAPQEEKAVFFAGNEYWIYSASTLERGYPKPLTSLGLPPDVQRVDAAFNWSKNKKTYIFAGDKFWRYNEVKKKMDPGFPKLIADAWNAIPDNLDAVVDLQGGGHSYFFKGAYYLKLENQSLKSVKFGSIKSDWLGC
Briefly: In-vitro fluorescence assay of MMP-2 activity. Format: biochemical.

Assay [4] has as its target T3, TACE (catalytic domain of the recombinant TACE protein) (Homo sapiens, UniProt P78536).
T3 construct: The catalytic domain of the recombinant TACE protein was expressed and purified; made in house
Put plainly: TACE FRET assay using TACE Cat. Format: biochemical. The following applies: FRET, pro-TNF-α substrate peptide; read-out: TACE IC50. Put shortly: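 Recombinant TACE catalytic domain (1 ug/ml) pre-incubated 10 min at room temperature with inhibitor in 50 mM Tris-HCl pH 7.4, 25 mM NaCl, 4% glycerol, 0.005% Brij 35; Abz/Dpa pro-TNF-α peptide substrate added, fluorescence (Ex 320/Em 420) followed 10 min; IC50 from initial rates by Hill fit.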

In another assay the target is MMP-13 (Homo sapiens, UniProt P45452). Briefly: In-vitro fluorescence assay of MMP-13 activity. The assay is classed as biochemical. As to the method: See Knight, C. […] […].
The method was essentially the same as for the determination of MMP-1 activity, described above, except that the final concentration of purified MMP in the assay was 0.5 nM, prepared by diluting with the assay buffer.

In assay [5] the target is T4, recombinant human catalytic domain of MMP-1 (Homo sapiens, UniProt P03956).
T4 construct: The source of enzyme in the assay was the recombinant human catalytic domain of MMP-1
T4 sequence (P03956 100-269 limits assumed): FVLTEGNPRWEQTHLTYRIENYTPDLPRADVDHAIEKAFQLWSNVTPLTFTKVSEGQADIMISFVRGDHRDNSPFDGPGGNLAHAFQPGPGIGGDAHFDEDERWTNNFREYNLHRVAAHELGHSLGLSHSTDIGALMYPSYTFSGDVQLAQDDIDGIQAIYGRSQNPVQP
Put plainly: In-vitro fluorescence assay of MMP-1 activity. The assay is classed as biochemical.
Protocol: A continuous assay was used in which the substrate is a synthetic peptide containing a fluorescent group (7-methoxycoumarin; Mca) that is quenched by energy transfer to a 2,4-dinitrophenyl group. […] The substrate used was Mca-PQGL-(3-[2,4-dinitrophenyl]-L-2,3-diaminopropionyl)-AR-OH (denoted as Wammp-5, custom synthesized by AnaSpec, Inc.). The assay buffer consisted of 50 mM Hepes (pH 7.4), 100 mM NaCl, 5 mM CaCI2, and 0.005% Brij-35. Each well of black polystyrene 96-well plates contained a 200 μL reaction mixture consisting of assay buffer, purified MMP (final concentration of 25 ng/ml, prepared by diluting with the assay buffer), and varied concentrations of inhibitor (prepared by serially diluting a given inhibitor in DMSO in 96-well polypropylene plate). […] The enzymatic reactions were initiated by adding the substrate to a final concentration of 20 μM, and mixing 10 times with a pipette. The final DMSO concentration in the assay was 6.0%.
Plots of the inhibitor concentration vs. the percent inhibition were fit to the following equation: y=(a−d)/[1+(x/c)^b]+d, a general sigmoidal curve with Hill slope, a to d. x is the inhibitor concentration under test. y is the percent inhibition. a is the limiting response as x approaches zero. As x increases without bound, y tends toward its limit d. c is the inflection point (IC50) for the curve. That is, y is halfway between the lower and upper asymptotes when x=c. b is the slope factor or Hill coefficient.

T3 sequence (P78536 223-474 limits assumed): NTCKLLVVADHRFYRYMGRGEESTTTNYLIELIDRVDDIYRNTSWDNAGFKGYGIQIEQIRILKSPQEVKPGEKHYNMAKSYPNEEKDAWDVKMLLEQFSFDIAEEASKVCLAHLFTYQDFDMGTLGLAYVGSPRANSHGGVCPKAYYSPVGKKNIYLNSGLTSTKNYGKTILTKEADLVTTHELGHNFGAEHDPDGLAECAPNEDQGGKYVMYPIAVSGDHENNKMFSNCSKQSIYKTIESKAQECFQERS

Take `Cc1cc(COc2ccc(S(=O)(=O)N[C@@H]3[C@H]4CC[C@H](C4)[C@@H]3C(=O)NO)cc2)c2ccccc2n1` (relative stereo) [Example 4, exo-N-Hydroxy-3-[({4-[(2-methylquinolin-4-yl)methoxy]phenyl}sulfonyl)amino]bicyclo[2.2.1]heptane-2-carboxamide]: the IC50 (as a rule, the midpoint of a concentration-inhibition curve) in assay [1] was 0.018 µM; in assay [2], more than 16.7 µM; in assay [3] (Homo sapiens), 1.6 µM; on recombinant human MMP-2, more than 16.7 µM; in assay [4], less than 0.0006 µM; against MMP-13 it was 6.38 µM. The IC50 in assay [5] was more than 16.7 µM.

Take `Cc1cc(COc2ccc(S(=O)(=O)N(C)C3C4CCC(C4)C3C(=O)NO)cc2)c2ccccc2n1` (single isomer, unassigned) [Example 1b, exo-N-hydroxy-3-[methyl({4-[(2-methylquinolin-4-yl)methoxy]phenyl}sulfonyl)amino]bicyclo[2.2.1]heptane-2-carboxamide]: the IC50 in assay [1] was 0.25 µM; in assay [2], more than 16.7 µM; in assay [3] it was 14 µM; on recombinant human MMP-2, more than 16.7 µM; in assay [4], 0.043 µM; on MMP-13, more than 16.7 µM. Also, in assay [5], the IC50 was more than 16.7 µM.
